Among the test systems are OVCAR-5 ovarian; U251 CNS; SK-MEL-28 melanoma; HL-60(TB) leukemia; SR leukemia; OVCAR-3 ovarian; HOP-62 NSCLC; MOLT-4 leukemia; SF-268 CNS; HOP-92 NSCLC; OVCAR-8 ovarian; NCI-H522 lung; UO-31 renal; A549 NSCLC; SK-MEL-5 melanoma; SN12C renal; MALME-3M melanoma; IGROV1 ovarian; HT29 colon; SF-295 CNS.
Common to all, as to test: NCI-60 cell line screen, 48 h

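Grown in 96-well plates, cells were treated for 48 hours with each compound at five concentrations. Insufficient inhibition: endpoint recorded as highest concentration tested. TGI denotes the concentration required for complete inhibition of growth.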

Turning to `C/C(=N\Nc1nc2cc(Cl)ccc2s1)c1ccccn1`, the TGI was over 100 µM in the experiment with OVCAR-5 ovarian; 6.57 µM in the experiment on U251 CNS; over 27.5 µM in the experiment with SK-MEL-28 melanoma; 0.586 µM in the experiment with HL-60(TB) leukemia; over 100 µM in the experiment with SR leukemia; 7.11 µM in the experiment with OVCAR-3 ovarian. The TGI in the experiment on HOP-62 NSCLC was 11.1 µM; in the experiment on MOLT-4 leukemia it was over 100 µM; with SF-268 CNS it was 34.1 µM; in the experiment with HOP-92 NSCLC it was 15.4 µM; with OVCAR-8 ovarian it was over 40.4 µM; in the experiment on NCI-H522 lung it was over 41.1 µM. Besides, the TGI is 14.8 µM in the experiment with UO-31 renal; over 43.7 µM in the experiment on A549 NSCLC; 13.6 µM with SK-MEL-5 melanoma; 15.2 µM in the experiment on SN12C renal; over 25.6 µM with MALME-3M melanoma.

As for `CN(C)C(=O)Oc1c(Br)cc(Br)cc1C(=O)OCc1ccccc1`, the TGI was over 100 µM in the experiment on OVCAR-5 ovarian; 56.2 µM with U251 CNS; 97.3 µM in the experiment with SK-MEL-28 melanoma; 49.9 µM in the experiment on HL-60(TB) leukemia; over 100 µM in the experiment with IGROV1 ovarian; 19.2 µM in the experiment with HT29 colon. The TGI in the experiment with OVCAR-3 ovarian was 48 µM; in the experiment on HOP-62 NSCLC it was over 71.2 µM; in the experiment with MOLT-4 leukemia it was 44.3 µM; with SF-268 CNS, over 100 µM; in the experiment on HOP-92 NSCLC, 42.8 µM; in the experiment with OVCAR-8 ovarian, over 100 µM. Besides, the TGI was over 100 µM with NCI-H522 lung; 68.9 µM in the experiment with UO-31 renal; over 100 µM in the experiment on A549 NSCLC; 17.7 µM in the experiment with SK-MEL-5 melanoma; 55.7 µM in the experiment on SF-295 CNS; 52.8 µM in the experiment on SN12C renal. Also, in the experiment on MALME-3M melanoma, the TGI came out at 55.3 µM.

Turning to `COC1/C=C/C=C(/C)Cc2cc(O)c(Cl)c(c2)N(C)C(=O)CC(OC(=O)C(C)C)C2(C)OC2C(C)C2CC1(O)NC(=O)O2` (stereo not drawn), the TGI in the experiment on OVCAR-5 ovarian was over 71.2 µM; with U251 CNS, over 43.9 µM; in the experiment on HL-60(TB) leukemia, over 100 µM; in the experiment with IGROV1 ovarian, over 100 µM; in the experiment with SR leukemia, over 55.4 µM; with HT29 colon it was under 0.01 µM. Besides, the TGI is over 100 µM in the experiment with OVCAR-3 ovarian; over 100 µM in the experiment on HOP-62 NSCLC; over 100 µM in the experiment with MOLT-4 leukemia; 44.2 µM in the experiment with SF-268 CNS; over 100 µM with HOP-92 NSCLC; over 100 µM in the experiment on OVCAR-8 ovarian. For the same molecule, the TGI in the experiment with NCI-H522 lung was under 0.01 µM; in the experiment on UO-31 renal, over 100 µM; in the experiment with A549 NSCLC it was over 100 µM; with SK-MEL-5 melanoma, under 0.0116 µM; in the experiment with SF-295 CNS it was over 100 µM; with SN12C renal, over 44.7 µM. In the experiment with MALME-3M melanoma, this molecule had a TGI of over 100 µM.

Regarding `CCN1c2ccccc2NC(=S)c2c1n[nH]c2-c1ccccc1`, the TGI in the experiment on OVCAR-5 ovarian was over 100 µM; in the experiment with U251 CNS, 50.1 µM; in the experiment on SK-MEL-28 melanoma, over 100 µM; in the experiment on HL-60(TB) leukemia, 29.9 µM; in the experiment on IGROV1 ovarian it was over 100 µM; in the experiment with SR leukemia, 67.3 µM. The TGI was over 100 µM with HT29 colon; over 100 µM with OVCAR-3 ovarian; 38.2 µM in the experiment on MOLT-4 leukemia; 95.6 µM in the experiment on SF-268 CNS; over 100 µM in the experiment with HOP-92 NSCLC; over 100 µM in the experiment with OVCAR-8 ovarian. The TGI with NCI-H522 lung is 52.8 µM; with A549 NSCLC it was 84.5 µM; in the experiment with SK-MEL-5 melanoma it was 43.2 µM; with SF-295 CNS it was 59.3 µM; in the experiment on SN12C renal, over 100 µM.

`CC(=O)C(=O)NC1/C=C(C)\C=C/C(O)C/C=C(C)\C=C/C(O)CC2OC(=O)C1(C)C(=O)C2C` (stereo not drawn): the TGI with OVCAR-5 ovarian, in the experiment with U251 CNS, with SK-MEL-28 melanoma, with IGROV1 ovarian, in the experiment with HT29 colon and in the experiment with OVCAR-3 ovarian was over 100 µM throughout. Besides, the TGI in the experiment on HOP-62 NSCLC, in the experiment with MOLT-4 leukemia, with SF-268 CNS, in the experiment on HOP-92 NSCLC, in the experiment on OVCAR-8 ovarian and in the experiment on NCI-H522 lung was over 100 µM in each case. In addition, the TGI in the experiment on UO-31 renal, in the experiment on A549 NSCLC, in the experiment on SK-MEL-5 melanoma, in the experiment with SF-295 CNS, in the experiment on SN12C renal and with MALME-3M melanoma was over 100 µM throughout.

As to `CC1(C)OC[C@H](C(=N)OCc2ccccc2)O1`, the TGI in the experiment on OVCAR-5 ovarian, in the experiment with U251 CNS, in the experiment with SK-MEL-28 melanoma, in the experiment with HL-60(TB) leukemia, with IGROV1 ovarian and with SR leukemia was over 100 µM in each case. Also, the TGI in the experiment on HT29 colon, with OVCAR-3 ovarian, with HOP-62 NSCLC, with MOLT-4 leukemia, in the experiment with SF-268 CNS and with HOP-92 NSCLC was over 100 µM in each case. The TGI in the experiment on OVCAR-8 ovarian, in the experiment with NCI-H522 lung, in the experiment on UO-31 renal, with A549 NSCLC, with SK-MEL-5 melanoma and with SF-295 CNS was over 100 µM throughout. Further, the TGI in the experiment on SN12C renal and in the experiment on MALME-3M melanoma was over 100 µM each time.

As to `O=C1CC(/C=C/c2ccco2)=C(O)C1=O`, the TGI came out at 30.1 µM in the experiment with OVCAR-5 ovarian; 28.6 µM in the experiment on U251 CNS; 48.3 µM in the experiment on SK-MEL-28 melanoma; 57.1 µM in the experiment with HL-60(TB) leukemia; 24.5 µM in the experiment on IGROV1 ovarian; 37.2 µM in the experiment on SR leukemia. For the same molecule, the TGI came out at 30.4 µM with HT29 colon; 27.1 µM in the experiment with OVCAR-3 ovarian; 9.07 µM with HOP-62 NSCLC; 60.8 µM in the experiment on MOLT-4 leukemia; 75 µM in the experiment on SF-268 CNS; 28.4 µM in the experiment with HOP-92 NSCLC. The TGI in the experiment on OVCAR-8 ovarian came out at 30 µM; in the experiment on NCI-H522 lung, 31.7 µM; with UO-31 renal it was 61.3 µM; with A549 NSCLC, 62.8 µM; in the experiment on SK-MEL-5 melanoma it was 26.5 µM; in the experiment with SF-295 CNS, 40.9 µM. The results for the TGI in the experiment on SN12C renal and in the experiment on MALME-3M melanoma were 27.7 µM and 23.9 µM, respectively.

Take `CCOC(=O)c1nc2ccc(OC)cc2c2c1Cc1ccccc1-2`: the TGI with OVCAR-5 ovarian, with U251 CNS, with SK-MEL-28 melanoma, with IGROV1 ovarian, in the experiment with SR leukemia and in the experiment on HT29 colon was over 100 µM throughout. The TGI in the experiment on OVCAR-3 ovarian, with HOP-62 NSCLC, in the experiment with MOLT-4 leukemia, in the experiment on SF-268 CNS, in the experiment on OVCAR-8 ovarian and in the experiment on NCI-H522 lung was over 100 µM each time. Moreover, the TGI with UO-31 renal, with A549 NSCLC, in the experiment with SK-MEL-5 melanoma, in the experiment on SF-295 CNS, in the experiment on SN12C renal and in the experiment on MALME-3M melanoma was over 100 µM throughout.

The values are drawn from PubChem BioAssay (NCI).
